Measured values from ChEMBL document CHEMBL4831522, “Structure-Based Optimization of Quinazolines as Cruzain and TbrCATL Inhibitors” (J Med Chem, 2021).
The source made the active and inactive calls. The rule behind the calls is not given here.

Key:
[1] = test system: Trypanosoma brucei brucei; test: Antitrypanosomal activity against Trypanosoma brucei brucei Lister 427 bloodstream forms measured after 72 hrs by SYBR green dye based assay; format: functional, organism-based; settings: Lister 427, 72 h
Cruzipain [2] = molecular target: T1, Cruzipain (Trypanosoma cruzi, UniProt P25779); test: Inhibition of recombinant Trypanosoma cruzi cruzain using Z-FR-AMC as substrate by fluorometry
T1 sequence (P25779 whole entry): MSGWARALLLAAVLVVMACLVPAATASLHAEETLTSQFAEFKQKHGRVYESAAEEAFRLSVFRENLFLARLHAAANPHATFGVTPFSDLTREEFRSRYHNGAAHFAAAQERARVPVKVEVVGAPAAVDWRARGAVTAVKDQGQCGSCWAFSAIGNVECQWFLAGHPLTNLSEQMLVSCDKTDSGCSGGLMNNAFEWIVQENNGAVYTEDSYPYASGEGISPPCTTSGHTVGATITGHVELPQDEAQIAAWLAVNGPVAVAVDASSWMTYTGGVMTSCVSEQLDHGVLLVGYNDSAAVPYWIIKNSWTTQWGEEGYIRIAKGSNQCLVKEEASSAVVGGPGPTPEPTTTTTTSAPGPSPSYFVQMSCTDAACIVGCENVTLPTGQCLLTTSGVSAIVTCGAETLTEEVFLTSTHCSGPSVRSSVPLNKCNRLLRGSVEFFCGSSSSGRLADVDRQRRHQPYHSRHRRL

[3] = molecular target: Rhodesain (Trypanosoma brucei rhodesiense) (UniProt Q95PM0); test: Inhibition of recombinant Trypanosoma brucei rhodesiense MVAT4 rhodesain expressed in Pichia pastoris at 100 uM using Z-FR-AMC as substrate by fluorometry relative to control
Chain of Rhodesain (Trypanosoma brucei rhodesiense) (Q95PM0 1-450): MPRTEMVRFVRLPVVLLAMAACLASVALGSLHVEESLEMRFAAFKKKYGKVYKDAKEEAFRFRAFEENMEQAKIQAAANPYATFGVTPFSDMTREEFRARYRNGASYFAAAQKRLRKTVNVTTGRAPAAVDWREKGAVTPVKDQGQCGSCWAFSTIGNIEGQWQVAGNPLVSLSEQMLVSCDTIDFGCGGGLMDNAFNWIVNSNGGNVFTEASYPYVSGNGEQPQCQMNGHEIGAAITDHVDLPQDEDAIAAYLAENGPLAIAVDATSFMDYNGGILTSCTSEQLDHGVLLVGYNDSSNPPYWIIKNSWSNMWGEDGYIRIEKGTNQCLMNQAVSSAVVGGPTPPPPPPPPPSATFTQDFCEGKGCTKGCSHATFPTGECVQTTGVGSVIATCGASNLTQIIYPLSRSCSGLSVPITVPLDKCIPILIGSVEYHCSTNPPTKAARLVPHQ

[4] = molecular target: Cruzipain (Trypanosoma cruzi) (UniProt P25779); test: Inhibition of recombinant Trypanosoma cruzi cruzain using Z-FR-AMC as substrate and compound-enzyme complex preincubated for 5 mins in presence of 0.01% Triton-X100 by fluorometry relative to control
Chain of Cruzipain (Trypanosoma cruzi) (P25779 123-467 limits assumed): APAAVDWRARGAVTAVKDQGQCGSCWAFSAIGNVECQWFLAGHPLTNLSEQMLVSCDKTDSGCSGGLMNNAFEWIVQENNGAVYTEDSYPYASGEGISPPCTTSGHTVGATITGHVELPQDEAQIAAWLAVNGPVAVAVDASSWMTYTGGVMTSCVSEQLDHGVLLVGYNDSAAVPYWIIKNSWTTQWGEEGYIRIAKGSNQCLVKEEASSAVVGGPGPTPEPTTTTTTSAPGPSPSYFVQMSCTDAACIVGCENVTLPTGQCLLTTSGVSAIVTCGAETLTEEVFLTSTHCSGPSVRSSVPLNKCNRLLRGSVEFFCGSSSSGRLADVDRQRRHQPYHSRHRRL

[5] = molecular target: Cruzipain (Trypanosoma cruzi) (UniProt P25779); test: Inhibition of recombinant Trypanosoma cruzi cruzain using Z-FR-AMC as substrate and compound-enzyme complex preincubated for 5 mins in presence of 0.001% Triton-X100 by fluorometry relative to control
[6] = molecular target: Cruzipain (Trypanosoma cruzi) (UniProt P25779); test: Inhibition of recombinant Trypanosoma cruzi cruzain using Z-FR-AMC as substrate and compound-enzyme complex preincubated for 5 mins in presence of 0.1% Triton-X100 by fluorometry relative to control
[7] = Cytotoxicity against mouse C2C12 cells; format: cell-based
Trypanosoma cruzi = test: Trypanocidal activity against amastigotes form of Trypanosoma cruzi CA-I/72 infected in mouse C2C12 cells assessed as inhibition of parasite replication incubated for 48 hrs by DAPI staining based microscopic analysis; format: functional, organism-based; settings: CA-I/72, C2C12, 48 h
[8] = molecular target: Cruzipain (Trypanosoma cruzi) (UniProt P25779); test: Inhibition of recombinant Trypanosoma cruzi cruzain at 100 uM using Z-FR-AMC as substrate by fluorometry relative to control
[9] = Selectivity index, ratio of CC50 for cytotoxicity against mouse C2C12 cells to EC50 for trypanocidal activity against Trypanosoma cruzi […] infected in mouse C2C12 cells; format: toxicity, cell-based; settings: read-out: Selectivity Index
[10] = molecular target: Cruzipain (Trypanosoma cruzi) (UniProt P25779); test: Inhibition of recombinant Trypanosoma cruzi cruzain using Z-FR-AMC as substrate when compound was preincubated for 5 mins in presence of BSA and 0.001% Triton-X100 followed by further incubation for 5 mins in presence of enzyme relative to control; settings: time 10.0 min
Rhodesain = Rhodesain (Trypanosoma brucei rhodesiense, UniProt Q95PM0); test: Inhibition of recombinant Trypanosoma brucei rhodesiense MVAT4 rhodesain expressed in Pichia pastoris using Z-FR-AMC as substrate by fluorometry
Chain of Rhodesain (Q95PM0 whole entry): as the sequence (Q95PM0 1-450) above

[11] = molecular target: Cruzipain (Trypanosoma cruzi) (UniProt P25779); test: Competitive inhibition of Trypanosoma cruzi cruzain assessed as increase in apparent Kapp up to 25 uM using varying levels of Z-FR-AMC as substrate by Michaelis-Menten analysis; settings: dose microM <=25
[12] = molecular target: Cruzipain (Trypanosoma cruzi) (UniProt P25779); test: Competitive inhibition of Trypanosoma cruzi cruzain assessed as unchanged initial velocity up to 25 uM using varying levels of Z-FR-AMC as substrate by Michaelis-Menten analysis; settings: dose microM <=25
Cruzipain [13] = molecular target: T1, Cruzipain; test: Competitive inhibition of Trypanosoma cruzi cruzain assessed as inhibition constant using varying levels of Z-FR-AMC as substrate by Michaelis-Menten analysis
Cruzipain [14] = molecular target: T1, Cruzipain; test: Inhibition of recombinant Trypanosoma cruzi cruzain using Z-FR-AMC as substrate preincubated for 10 mins followed by substrate addition by fluorometry
[15] = molecular target: Rhodesain (Trypanosoma brucei rhodesiense) (UniProt Q95PM0); test: Time dependent inhibition of recombinant Trypanosoma brucei rhodesiense MVAT4 rhodesain expressed in Pichia pastoris at 100 uM using Z-FR-AMC as substrate by fluorometry; settings: time 10.0 min
[16] = molecular target: Cruzipain (Trypanosoma cruzi) (UniProt P25779); test: Time dependent inhibition of recombinant Trypanosoma cruzi cruzain at 100 uM using Z-FR-AMC as substrate by fluorometry; settings: time 10.0 min
[17] = molecular target: Cruzipain (Trypanosoma cruzi) (UniProt P25779); test: Inhibition of recombinant Trypanosoma cruzi cruzain at 100 uM using Z-FR-AMC as substrate preincubated for 10 mins followed by substrate addition by fluorometry relative to control

SMILES | EC50 [1] [µM] | IC50 (Cruzipain [2]) [µM] | inhibition [3] [%] | inhibition [4] [%] | inhibition [5] [%] | inhibition [6] [%] | CC50 [7] [µM] | EC50 (Trypanosoma cruzi) [µM] | inhibition [8] [%] | selectivity ratio [9] | inhibition [10] [%] | IC50 (Rhodesain) [µM] | inhibition [11] | inhibition [12] | Ki (Cruzipain [13]) [µM] | IC50 (Cruzipain [14]) [µM] | TDI [15] | TDI [16] | inhibition [17] [%]
OCCCNc1nc(Nc2cccc(F)c2)c2ccccc2n1 | 17.8 | 25 | 56 | 67 | 58 | 64 | > 10 | 0.09 | 89 | > 109 | 57 |  |  |  |  |  |  |  | 
OCCCNc1nc(NCc2ccccc2)c2ccccc2n1 | > 50 | 22 | 47 | 31 | 25 | 33 | > 10 | 0.5 | 100 | > 193 | 30 |  |  |  |  |  |  |  | 
O=C(Cn1ccnc1[N+](=O)[O-])NCc1ccccc1 [BENZNIDAZOLE] |  |  |  |  |  |  | > 50 | 5.4 |  | > 9 |  |  |  |  |  |  |  |  | 
Oc1ccc(Nc2nc(NCc3ccccc3)c3ccccc3n2)cc1 | > 50 | 18 | 95 | 56 | 81 | 40 | > 10 | 5.9 | 100 | > 2 | 55 | 23 |  |  |  |  |  |  | 
O=C(c1ccc(Nc2nc(NCc3ccccc3)c3ccccc3n2)cc1)N1CCOCC1 | > 50 | 7 | 7 | 53 | 45 | 49 | > 10 | 0.8 | 99 | > 12 | 46 | 22 | Active | Active | 3.2 |  |  |  | 
O=C(c1ccc(Nc2nc(NCCCO)c3ccccc3n2)cc1)N1CCOCC1 | > 50 | 15 | 62 | 53 | 53 | 69 | > 10 | 22 | 90 | > 0.5 | 51 |  |  |  |  |  |  |  | 
COc1ccc(Nc2nc(NCc3ccccc3)c3ccccc3n2)cc1 | 15.1 |  |  | 50 | 83 | 31 | 9 | 0.5 |  | 18 | 65 |  |  |  |  | 52 | Active | Active | 58
c1ccc(CNc2ccnc(Nc3ccccc3)n2)cc1 | > 50 |  | 6 |  |  |  | > 10 | 7 |  | > 1 |  |  |  |  |  |  |  |  | 
Clc1ccc(Nc2nc(NCCN3CCOCC3)c3ccccc3n2)cc1 | 23.6 | 2.5 | 48 | 67 | 75 | 80 | > 10 | 370 | 95 | > 27 | 62 |  |  |  |  |  |  |  | 
c1ccc(CNc2nc(Nc3ccccn3)nc3ccccc23)cc1 | > 50 |  | 10 |  |  |  | > 10 | 2.7 | 100 | > 4 |  |  |  |  |  |  |  |  | 
c1ccc(CNc2nc(Nc3ccccc3)nc3ccccc23)cc1 | 17.5 | 8 | 77 | 50 |  |  | > 10 | 0.047 |  | > 211 | 43 | 17.5 | Active | Active | 1.7 |  |  |  | 
Fc1cccc(Nc2nc(Nc3ccccc3)nc3ccccc23)c1 | 9 |  | 17 |  |  |  | > 10 | 0.07 | 46 | > 150 |  |  |  |  |  |  |  |  | 
Oc1cccc(Nc2nc(NCc3ccccc3)c3ccccc3n2)c1 | 13.8 | 18 | 98 | 54 | 65 | 33 | 10 | 0.93 | 100 | > 11 | 44 | 26 |  |  |  |  |  |  | 
